Source: ChEMBL document CHEMBL1139116, “Discovery and SAR of isonicotinamide BACE-1 inhibitors that bind beta-secretase in a N-terminal 10s-loop down conformation” (Bioorg Med Chem Lett, 2007)

Assay: Partition coefficient, log P of the compound
Assay type: physicochemical
Conditions: octanol/water

Row | logP | Structure (SMILES)
1 | > 2.51 | CCCC[C@H](N)[C@H](Cc1ccccc1)NC(=O)c1cc(NCC2CC2C)nc(N(C)S(C)(=O)=O)c1 (mixture of isomers)
2 | > 3.5 | CC1CC1CNc1cc(C(=O)N[C@@H](Cc2ccccc2)[C@@H](N)CCC(F)(F)F)cc(N(C)S(C)(=O)=O)n1 (mixture of isomers)
